The record followed here is US5698710A, “Tachykinins antagonists” (A. Menarini Industrie Farmaceutiche Riunite S.r.l., priority 1994, dated 1997).

T1 sequence (P25103 whole entry): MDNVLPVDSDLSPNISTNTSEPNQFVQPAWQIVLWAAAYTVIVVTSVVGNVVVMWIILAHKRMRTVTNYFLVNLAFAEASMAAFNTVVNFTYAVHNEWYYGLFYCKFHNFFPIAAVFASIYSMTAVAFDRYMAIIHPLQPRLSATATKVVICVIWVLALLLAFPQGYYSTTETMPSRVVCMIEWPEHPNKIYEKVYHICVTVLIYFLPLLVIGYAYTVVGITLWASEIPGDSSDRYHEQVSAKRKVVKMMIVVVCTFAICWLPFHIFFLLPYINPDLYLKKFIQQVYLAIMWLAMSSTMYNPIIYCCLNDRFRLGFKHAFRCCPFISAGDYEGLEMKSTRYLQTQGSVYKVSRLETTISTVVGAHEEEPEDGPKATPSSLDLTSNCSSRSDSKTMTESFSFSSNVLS

The first assay has as its target T1, NK1 receptors (Homo sapiens, UniProt P25103).
T1 construct: endogenous in cells; host or cells: IM9 cells (intact)
Briefly: [^3 H]SP Binding Assay in IM9 Cell Line (competition). The conditions noted are these: intact IM9 cells; 0.3 nM [^3 H]SP; 60' at room temperature; pH 7.5. As for the experimental part:
The evaluation of the antagonist acivity of NK1 receptors was performed with binding and functional tests.
The assay was carried out on intact cells as described by Payan et al. (1984). The cells were washed with buffer A at pH 7.5 containing (in mM) Tris-HCl 50, NaCl 150 and 0.02% BSA, thereafter were resuspended in a dosage buffer (buffer A added with protease inhibitors), concentration 1×10^7 cells/ml. […] The non-specific binding was calculated in the presence of […] of non-radioactive SP. The dosage mixture was poured in test tubes for microcentrifugation which were preadsorbed in a solution of BSA 0.5% for at least 3 hours. […] The affinity was measured as pKi.
With `CN(Cc1ccccc1)C(=O)C(Cc1ccc2ccccc2c1)NC(=O)C1(NC(=O)c2c[nH]c3ccccc23)CCC(O)CC1` (stereo not drawn) [xviii, N-[N(1(H)indol-3-yl-carbonyl)-1-amino-cis-4-hydrohy-cyclohexancarbonyl]-2-(2-naphthyl)alanine-N-methyl-N-benzylamide], the “Affinity (pKi) in the IM9 binding test” value is 8.3.

Take `COCCOCOC1CCC(NC(=O)c2c[nH]c3ccccc23)(C(=O)NC(Cc2ccccc2)C(=O)N(C)Cc2ccccc2)CC1` (stereo not drawn) [xxv, N-[N(1(H)indol-3-yl-carbonyl)-1-amino-cis-4-methoxyethoxymethoxyl-cyclohexancarbonyl]-phenylalanine-N-methyl-N-benzylamide]: the “Affinity (pKi) in the IM9 binding test” value is 7.6.

Still in this assay, the particulars now being: read-out: Affinity (pKi) in the IM9 binding test (converted).
For the compound `CN(Cc1ccccc1)C(=O)C(Cc1ccc2ccccc2c1)NC(=O)C1(NC(=O)c2c[nH]c3ccccc23)CCNCC1` (centres unmarked) [N-[N(1(H)indol-3-yl-carbonyl)-4-amino-piperidin-4-carbonyl]-2-(2-naphthyl)alanine-N-methyl-N-benzylamide], the Ki was 0.0126 µM.

With `O=C(Cc1ccccc1)NC(Cc1ccc2ccccc2c1)NC(=O)C1(NC(=O)c2c[nH]c3ccccc23)CCCCC1` (centres unmarked) [ii, 1-[N(1(H)indol-3-yl-carbonyl)-1-amino-cyclohexancarbonyl]-amino-1[N-(2-phenylacetyl)amino]-2-(2-naphthyl)ethane], the Ki is 0.0158 µM.

Regarding `CN(Cc1ccccc1)C(=O)C(Cc1ccc2ccccc2c1)NC(=O)C1(NC(=O)c2cc3ccccc3o2)CCCCC1` (centres unmarked) [N-[N(benzofuran-2-yl-carbonyl)-1-aminocyclohexancarbonyl]-2-(2-naphthyl)alanine-N-methyl-N-benzylamide], the Ki was 0.0447 µM.

Consider `COc1ccc(CC(NC(=O)C2(NC(=O)c3c[nH]c4ccccc34)CCCCC2)C(=O)N(C)Cc2ccccc2)cc1` (centres unmarked) [N-[N(1(H)indol-3-yl-carbonyl)-1-amino-cyclohexancarbonyl]-4-methoxyphenylalanine-N-methyl-N-benzylamide], for which the Ki is 0.00398 µM.

As to `CN(Cc1ccccc1)C(=O)C(Cc1ccc2ccccc2c1)NC(=O)C1(NC(=O)c2c[nH]c3ccccc23)CCSCC1` (centres unmarked) [N-[N(1(H)indol-3-yl-carbonyl)-4-amino-tetrahydrothiopyran-4-carbonyl]-2-(2-naphthyl)alanine-N-methyl-N-benzylamide], the Ki is 0.00501 µM.

Turning to `CN(Cc1ccccc1)C(=O)C(Cc1ccc(O)cc1)NC(=O)C1(NC(=O)c2c[nH]c3ccccc23)CCCCC1` (centres unmarked) [N-[N(1(H)indol-3-yl-carbonyl)-1-amino-cyclohexancarbonyl]-tyrosine-N-methyl-N-benzylamide], the Ki is 0.02 µM.

On to `CN(Cc1ccccc1)C(=O)C(Cc1ccc2ccccc2c1)NC(=O)C1(NC(=O)c2c[nH]c3ccccc23)CCCC1` (centres unmarked) [N-[N(1(H)indol-3-yl-carbonyl)-1-amino-cyclopentancarbonyl]-2-(2-naphthyl)alanine-N-methyl-N-benzylamide], for which the Ki was 0.00251 µM.

As to `CN(Cc1ccccc1)C(=O)[C@H](Cc1ccc2ccccc2c1)NC(=O)C1(NC(=O)c2c[nH]c3ccccc23)CCCCC1` [Example, N^α [N-(1(H)indol-3-yl-carbonyl)-1-amino-cyclohexan-carbonyl]-L-2-naphthylalanine-N-methyl-N-benzylamide], the Ki is 0.001 µM.

As for `CN(Cc1ccccc1)C(=O)C(Cc1ccc2ccccc2c1)NC(=O)C1(NC(=O)c2ccc(Cl)c(Cl)c2)CCCCC1` (centres unmarked) [N-[N(3,4-dichloro-benzoyl)-1-amino-cyclohexancarbonyl]-2-(2-naphthyl)alanine-N-methyl-N-benzylamide], the Ki was 0.00794 µM.

Turning to `CN(Cc1ccccc1)C(=O)C(Cc1ccc2ccccc2c1)NC(=O)C1(NC(=O)c2c[nH]c3ccccc23)CCOCC1` (centres unmarked) [xxvii, N-[N(1(H)indol-3-yl-carbonyl)-4-amino-tetrahydropyran-4-carbonyl]-2-naphthylalanine-N-methyl-N-benzylamide], the Ki was 0.00631 µM.

For the compound `CN(Cc1ccccc1)C(=O)C(Cc1ccc2ccccc2c1)NC(=O)C1(NC(=O)c2ccc([N+](=O)[O-])cc2)CCCCC1` (centres unmarked) [N-[N(4-nitro-benzoyl)-1-amino-cyclohexancarbonyl]-2-(2-naphthyl)alanine-N-methyl-N-benzylamide], the Ki was 0.00501 µM.

On to `CN(Cc1ccccc1)C(=O)C(Cc1ccc2ccccc2c1)NC(=O)C1(N(C)C(=O)c2cn(C)c3ccccc23)CCCCC1` (centres unmarked) [xii, N-[N(1(methyl)indol-3-yl-carbonyl)-N-methyl-1-amino-cyclohexancarbonyl]-2 naphthylalanine-N-methyl-N-benzylamide], for which the Ki was 0.0158 µM.

As for `CN(Cc1ccccc1)C(=O)C(Cc1ccccc1)NC(=O)C1(NC(=O)c2c[nH]c3ccccc23)CCCC1` (centres unmarked) [N-[N(1(H)indol-3-yl-carbonyl)-1-amino-cyclopentancarbonyl]-phenylalanine-N-methyl-N-benzylamide], the Ki is 0.158 µM.

`CN(Cc1ccccc1)C(=O)C(Cc1ccc2ccccc2c1)NC(=O)C1(NC(=O)c2ccccc2)CCCCC1` (centres unmarked) [N-[N(benzoyl)-1-amino-cyclohexancarbonyl]-2-(2-naphthyl)alanine-N-methyl-N-benzylamide]: the Ki was 0.0158 µM.

`CN(Cc1ccccc1)C(=O)C(Cc1ccc2ccccc2c1)NC(=O)C1(NC(=O)c2ccc(Cl)cc2)CCCCC1` (centres unmarked) [N-[N(4-chloro-benzoyl)-1-amino-cyclohexancarbonyl]-2-(2-naphthyl)alanine-N-methyl-N-benzylamide]: the Ki was 0.01 µM.

Regarding `COc1ccc(CC(NC(=O)C2(NC(=O)c3c[nH]c4ccccc34)CCCC2)C(=O)N(C)Cc2ccccc2)cc1` (centres unmarked) [N-[N(1(H)indol-3-yl-carbonyl)-1-amino-cyclopentancarbonyl]-4-methyoxyphenylalanine-N-methyl-N-benzylamide], the Ki is 0.794 µM.

For `COc1ccc(C(=O)NC2(C(=O)NC(Cc3ccc4ccccc4c3)C(=O)N(C)Cc3ccccc3)CCCCC2)cc1` (centres unmarked) [N-[N(4-methoxy-benzoyl)-1-amino-cyclohexancarbonyl]-2-(2-naphthyl)alanine-N-methyl-N-benzylamide], the Ki was 0.02 µM.

As for `CN(C(=O)Cc1ccccc1)C(Cc1ccc2ccccc2c1)NC(=O)C1(NC(=O)c2c[nH]c3ccccc23)CCNCC1` (centres unmarked) [xxviii, 1-N-[N(1(H)indol-3-yl-carbonyl)-4-amino-piperidin-4-carbonyl]-amino-1-[N(methyl)-N-(2-phenylacetyl)]amino-2-(2-naphtyl)ethane], the Ki was 0.0126 µM.

For `CN(Cc1ccccc1)C(=O)C(Cc1ccc([N+](=O)[O-])cc1)NC(=O)C1(NC(=O)c2c[nH]c3ccccc23)CCCCC1` (centres unmarked) [N-[N(1(H)indol-3-yl-carbonyl)-1-amino-cyclohexancarbonyl]-4-nitrophenylalanine-N-methyl-N-benzylamide], the Ki was 0.02 µM.

Consider `CN(Cc1ccccc1)C(=O)C(Cc1ccccc1)NC(=O)C1(NC(=O)c2c[nH]c3ccccc23)CCCCC1` (centres unmarked) [N-[N(1(H)indol-3-yl-carbonyl)-1-amino-cyclohexancarbonyl]-phenylalanine-N-methyl-N-benzylamide], for which the Ki is 0.178 µM.

For the compound `CN(Cc1ccccc1)C(=O)C(Cc1ccc2ccccc2c1)NC(=O)C1(NC(=O)c2cn(C)c3ccccc23)CCCCC1` (centres unmarked) [N-[N(1(methyl)indol-3-yl-carbonyl)-1-amino-cyclohexancarbonyl]-2-)2-naphthyl)alanine-N-methyl-N-benzylamide], the Ki is 0.0158 µM.
